Measurements published in ChEMBL document CHEMBL1649453, “Activity of temocillin against KPC-producing Klebsiella pneumoniae and Escherichia coli” (Antimicrob Agents Chemother, 2009).
Converted amounts (≈) assume the structure as drawn.

Experiments:
[1] = tested on: Klebsiella pneumoniae; experiment: Antimicrobial activity against Klebsiella pneumoniae expressing beta-lactamase KPC gene by agar dilution method; format: functional
[2] = tested on: Escherichia coli; experiment: Antimicrobial activity against Escherichia coli clinical isolates expressing beta-lactamase KPC gene by agar dilution method; format: functional
[3] = tested on: Escherichia coli; experiment: Antimicrobial activity against Escherichia coli DH10B harboring pBCSK plasmid expressing beta-lactamase KPC gene by agar dilution method; format: functional; settings: K-12 DH10B
[4] = tested on: Escherichia coli; experiment: Antimicrobial activity against Escherichia coli DH10B by agar dilution method; format: functional; settings: K-12 DH10B
[5] = Cmax in human serum at 1 gram, iv; format: ADME, organism-based; parameters: route intravenous
[6] = Protein binding in human serum at 1 gram, iv; format: ADME, organism-based; settings: read-out: PB (converted)
[7] = Half life in human serum at 1 gram, iv; format: ADME, organism-based
[8] = Drug level in human urine at 500 mg, im bid for 3 days; format: ADME, organism-based; settings: read-out: Drug uptake

`CO[C@@]1(NC(=O)C(C(=O)O)c2ccsc2)C(=O)N2[C@@H](C(=O)O)C(C)(C)S[C@@H]21` (some centres undefined) [TEMOCILLIN] showed an MIC50 [1] of 32 µg/mL (≈ 77.2 µM), an MIC90 [1] of 32 µg/mL (≈ 77.2 µM) and an MIC [2] of 8 µg/mL (≈ 19.3 µM). For the same compound, the MIC [3] was 8 µg/mL (≈ 19.3 µM), the MIC [4] was 8 µg/mL (≈ 19.3 µM) and the Cmax [5] was 160 µg/mL. For the same compound, the fraction unbound [6] was 0.15, the half-life [7] was 4 h and the concentration at 72 h [8] was 500 µg/mL.
